Results taken from PMC5327470, “Discovery and Optimization of Novel 5-Indolyl-7-arylimidazo[1,2-a]pyridine-8-carbonitrile Derivatives as Potent Antitubulin Agents Targeting Colchicine-binding Site” (Scientific Reports, 2017).

Tests used:
[1] = tested on: SMMC-7721 (human liver cancer); experiment: MTT antiproliferative assay, SMMC-7721; format: cell-based; settings: 72 h, mean ± SD
Procedure: Data represent the mean values ± standard deviation (SD) of independent experiments performed in triplicate.
All of the cells were purchased from the American Type Culture Collection (ATCC, Manassas, VA).
The antiproliferative activities in vitro of Crolibulin and all the target compounds were determined by an MTT assay. Briefly, cells were seeded into 96-well plates at a density of 1–3 × 10^4/well (depends on the cell growth rate). 24 h later, triplicate wells were treated with media and the agents. […] After 4 h of incubation, the medium with MTT was removed, and […] of DMSO was added to each well. The plates were gently agitated until the purple formazan crystals were dissolved, and the OD490 was determinedusing a microplate reader (MK3, Thermo, Germany). The data were calculated and plotted as the percent viability compared to the control.

[2] = tested on: MKN-45 (human gastric cancer); experiment: MTT antiproliferative assay, MKN-45; format: cell-based; settings: 72 h, mean ± SD, read-out: IC50 (μM) ±SD MKN45
Procedure: (§1) To evaluate the antiproliferative activity, all synthesized derivatives (5a–5v and 7a–7h) were investigated for their activity in vitro against a panel of cancer cell lines including HT-29 (human colon cancer), H460 (human lung cancer), A549 (human lung carcinoma), MKN-45 (human gastric cancer) and SMMC-7721 (human liver cancer) by MTT assay. CA-4 and Crolibulin were served as positive control, and the results expressed as half-maximal inhibitory concentration (IC50). IC50 values are the concentrations that cause 50% inhibition of cancer cell growth (μM). Data represent the mean values ± standard deviation (SD) of independent experiments performed in triplicate.
(§2) Cell lines and culture conditions.The human colon carcinoma cell line HT-29, the human pulmonary carcinoma cell line A549, the human gastric carcinoma cell line MKN-45, the human breast cancer cell line MDA-MB-231 and human heptocarcinoma cellline SMMC-7721were cultured in RPMI-1640 mediumcontaining 10% FBS, 100 U/mL streptomycin and 100 U/mL penicillinat 37 °C in humidified atmosphere with 5% CO2. All of the cells were purchased from the American Type Culture Collection (ATCC, Manassas, VA).
(§3) The antiproliferative activities in vitro of Crolibulin and all the target compounds were determined by an MTT assay. Briefly, cells were seeded into 96-well plates at a density of 1–3 × 10^4/well (depends on the cell growth rate). 24 h later, triplicate wells were treated with media and the agents. After 72 h ofincubation at 37 °C in 5% CO2, the drug containing medium wasremoved and replaced by […] of fresh medium with 5 mg/mLMTT solution. After 4 h of incubation, the medium with MTT was removed, and […] of DMSO was added to each well. The plates were gently agitated until the purple formazan crystals were dissolved, and the OD490 was determinedusing a microplate reader (MK3, Thermo, Germany). The data were calculated and plotted as the percent viability compared to the control. The 50% inhibitory concentration (IC50) was defined as theconcentration that reduced the absorbance of the untreated wells by 50% of the vehicle in the MTT assay.

H460 (human lung cancer) = experiment: MTT antiproliferative assay, H460; format: cell-based; settings: for IC50: MTT, 72 h, mean ± SD
Procedure: as §1, §3

[3] = tested on: HT-29 (human colon cancer); experiment: MTT antiproliferative assay, HT-29; format: cell-based; settings: for IC50: Homo sapiens, HT-29, MTT, 72 h, mean ± SD, read-out: IC50 (μM) ±SD HT29
Procedure: as §1, §2, §3

[4] = tested on: A549 (human lung carcinoma); experiment: MTT antiproliferative assay, A549; format: cell-based; settings: 72 h, mean ± SD
Procedure: as §1, §2, §3

Structure (SMILES) | IC50 [1] [µM] | IC50 [2] [µM] | IC50 (H460 (human lung cancer); Homo sapiens, NCI-H460, 72 h) [µM] | IC50 [3] [µM] | melting point [°C] | IC50 [4] [µM] | IC50 (H460 (human lung cancer)) [µM] | fold more potent than 5a on HT-29 cell ([3]; ratio of IC50 values) | fold more active than CA-4 on HT-29 ([3]; ratio of IC50 values) [fold] | fold more active than Crolibulin on HT-29 cell ([3]; ratio of IC50 values) | fold more active in H460 than 5h (H460 (human lung cancer); ratio of IC50 values) | IC50 (H460 (human lung cancer); Homo sapiens, NCI-H460) [µM]
N#Cc1c(-c2ccc(O)c(O)c2O)cc(-c2c[nH]c3ccccc23)n2ccnc12 [5p, 5-(1H-indol-3-yl)-7-(2,3,4-trihydroxyphenyl)imidazo[1,2-a]pyridine-8-carbonitrile] | 10.4 ± 1.64 | 9.67 ± 0.73 | 0.25 ± 0.031 | 1.48 ± 0.27 | 297.8 to 301.4 | 1.18 ± 0.21 |  |  |  |  |  | 
N#Cc1c(-c2ccc(Br)cc2)cc(-c2c[nH]c3ccccc23)n2ccnc12 [5h, 7-(4-bromophenyl)-5-(1H-indol-3-yl)imidazo[1,2-a]pyridine-8-carbonitrile] | 53.5 ± 7.76 | 2.76 ± 0.47 | 1.16 | 0.12 ± 0.02 | 307.8 to 309.5 | 8.54 ± 0.93 | 0.95 ± 0.03 | about 2.5 fold |  |  |  | 
N#Cc1c(-c2ccc(O)c(Br)c2)cc(-c2c[nH]c3ccccc23)n2ccnc12 [5l, 7-(3-bromo-4-hydroxyphenyl)-5-(1H-indol-3-yl)imidazo[1,2-a]pyridine-8-carbonitrile] | 80.2 ± 7.54 | 10.7 ± 1.85 | 1.07 ± 0.12 | 0.92 ± 0.08 | 309.2 to 312.3 | > 100 |  |  |  |  |  | 
COc1ccc(-c2cc(-c3c[nH]c4ccccc34)n3ccnc3c2C#N)cc1 [5d, 5-(1H-indol-3-yl)-7-(4-methoxyphenyl)imidazo[1,2-a]pyridine-8-carbonitrile] | 71.5 ± 9.43 | 1.64 ± 0.07 | 9.61 ± 0.76 | 0.43 ± 0.03 | 294.7 to 295.5 | 15.5 ± 2.13 |  |  |  |  |  | 
N#Cc1c(-c2ccc(F)cc2Cl)cc(-c2c[nH]c3ccc(Br)cc23)n2ccnc12 [5v, 5-(5-bromo-1H-indol-3-yl)-7-(2-chloro-4-fluorophenyl)imidazo[1,2-a]pyridine-8-carbonitrile] | 56.3 ± 4.87 | 7.35 ± 0.54 | 2.13 ± 0.24 | 0.26 ± 0.03 | 320.8 to 323.2 | 3.57 ± 0.23 |  |  |  |  |  | 
N#Cc1c(-c2ccc(Br)cc2)cc(-c2c[nH]c3ccc(Br)cc23)n2ccnc12 [5u, 5-(5-bromo-1H-indol-3-yl)-7-(4-bromophenyl)imidazo[1,2-a]pyridine-8-carbonitrile] | 79.3 ± 5.14 | 38.1 ± 4.42 | 1.93 ± 0.33 | 0.73 ± 0.09 | 317.2 to 321.8 | 21.4 ± 2.58 |  |  |  |  |  | 
COc1cccc(-c2cc(-c3c[nH]c4ccccc34)n3ccnc3c2C#N)c1 [5c, 5-(1H-indol-3-yl)-7-(3-methoxyphenyl)imidazo[1,2-a]pyridine-8-carbonitrile] | 76.2 ± 8.98 | 1.24 ± 0.08 | 17.5 ± 1.53 | 0.24 ± 0.01 | 316.5 to 318.7 | 12.2 ± 1.89 |  |  |  |  |  | 
N#Cc1c(-c2cc(Br)c(O)c(Br)c2)cc(-c2c[nH]c3ccccc23)n2ccnc12 [5m, 7-(3,5-dibromo-4-hydroxyphenyl)-5-(1H-indol-3-yl)imidazo[1,2-a]pyridine-8-carbonitrile] | 20.5 ± 3.53 | 18.3 ± 2.13 | 1.15 ± 0.13 | 2.13 ± 0.12 | 290.5 to 294.2 | 2.45 ± 0.37 |  |  |  |  |  | 
N#Cc1c(-c2cccc(Br)c2)cc(-c2c[nH]c3ccccc23)n2ccnc12 [5g, 7-(3-bromophenyl)-5-(1H-indol-3-yl)imidazo[1,2-a]pyridine-8-carbonitrile] | 79.2 ± 6.87 | 64 ± 7.14 | 6.89 ± 0.67 | > 100 | 321.9 to 324.4 | > 100 |  |  |  |  |  | 
N#Cc1c(-c2ccc(F)cc2F)cc(-c2c[nH]c3ccccc23)n2ccnc12 [5i, 7-(2,4-difluorophenyl)-5-(1H-indol-3-yl)imidazo[1,2-a]pyridine-8-carbonitrile] | 13.6 ± 2.38 | 0.03 ± 0.006 | 0.04 ± 0.001 | 0.08 ± 0.001 | 340.3 to 346.2 | 0.12 ± 0.03 |  |  |  |  | about 29 fold | 
N#Cc1c(-c2ccccc2)cc(-c2c[nH]c3ccccc23)n2ccnc12 [5a, 5-(1H-indol-3-yl)-7-phenylimidazo[1,2-a]pyridine-8-carbonitrile] | 89.4 ± 2.6 | 79.7 ± 8.1 | 2.79 ± 0.52 | 0.3 ± 0.04 | 338.3 to 339.7 | 86.4 ± 7.33 |  |  |  |  |  | 
COc1cc(OC)c(OC)c(-c2cc(-c3c[nH]c4ccccc34)n3ccnc3c2C#N)c1 [5q, 5-(1H-indol-3-yl)-7-(2,3,5-trimethoxyphenyl)imidazo[1,2-a]pyridine-8-carbonitrile] | 27.4 ± 2.32 | 1.74 ± 0.15 |  | 0.46 ± 0.03 | 302.7 to 304.8 | 1.75 ± 0.13 |  |  |  |  |  | 
COc1cc([C@H]2C(C#N)=C(N)Oc3c2ccc(N)c3N)cc(Br)c1OC [Crolibulin, reference compound] |  | 0.17 ± 0.03 |  | 0.52 ± 0.02 |  |  |  |  |  |  |  | 0.03 ± 0.007
N#Cc1c(-c2ccc(F)c(F)c2)cc(-c2c[nH]c3ccccc23)n2ccnc12 [5j, 7-(3,4-difluorophenyl)-5-(1H-indol-3-yl)imidazo[1,2-a]pyridine-8-carbonitrile] | 18.5 ± 2.76 | 1.43 ± 0.12 | 0.076 ± 0.01 | 0.03 ± 0.009 | 341.6 to 343.8 |  |  |  |  |  |  | 

Now from value to compound, other results behind:

IC50 [1] [µM] | IC50 [2] [µM] | IC50 (H460 (human lung cancer); Homo sapiens, NCI-H460, 72 h) [µM] | IC50 [3] [µM] | melting point [°C] | IC50 [4] [µM] | IC50 (H460 (human lung cancer)) [µM] | Structure (SMILES) | fold more potent than 5a on HT-29 cell ([3]; ratio of IC50 values) | fold more active than CA-4 on HT-29 ([3]; ratio of IC50 values) [fold] | fold more active than Crolibulin on HT-29 cell ([3]; ratio of IC50 values) | fold more active in H460 than 5h (H460 (human lung cancer); ratio of IC50 values) | IC50 (H460 (human lung cancer); Homo sapiens, NCI-H460) [µM]
21.6 ± 3.16 | 20.5 ± 2.32 | 0.96 ± 0.06 | 0.03 ± 0.003 | 170.7 to 172.6 | 3.54 ± 0.41 |  | CCNCc1cn2c(-c3c[nH]c4ccccc34)cc(-c3ccc(F)cc3Cl)c(C#N)c2n1 [7b, 7-(2-chloro-4-fluorophenyl)-2-((ethylamino)methyl)-5-(1H-indol-3-yl)imidazo[1,2-a]pyridine-8-carbonitrile] |  | ~1.7 | about 17 fold |  | 
42.6 ± 4.12 | 19.2 ± 1.35 | 1.32 ± 0.12 | 0.19 ± 0.02 | 195 to 199.7 | 8.79 ± 0.62 |  | N#Cc1c(-c2ccc(F)cc2Cl)cc(-c2c[nH]c3ccccc23)n2cc(CN3CCCC3)nc12 [7g, 7-(2-chloro-4-fluorophenyl)-5-(1H-indol-3-yl)-2-(pyrrolidin-1-ylmethyl)imidazo[1,2-a]pyridine-8-carbonitrile] |  |  |  |  | 
27 ± 3.06 | 12.2 ± 1.89 | 1.29 ± 0.21 | 0.04 ± 0.001 | 219.5 to 223.5 | 5.34 ± 0.67 |  | CNCc1cn2c(-c3c[nH]c4ccccc34)cc(-c3ccc(F)cc3Cl)c(C#N)c2n1 [7a, 7-(2-chloro-4-fluorophenyl)-5-(1H-indol-3-yl)-2-((methylamino)methyl)imidazo[1,2-a]pyridine-8-carbonitrile] |  |  |  |  | 
36.7 ± 4.92 | 22.4 ± 2.51 | 0.96 ± 0.07 | 0.33 ± 0.04 | 222.2 to 225.3 | 6.18 ± 0.71 |  | CC(C)NCc1cn2c(-c3c[nH]c4ccccc34)cc(-c3ccc(F)cc3Cl)c(C#N)c2n1 [7c, 7-(2-chloro-4-fluorophenyl)-5-(1H-indol-3-yl)-2-((isopropylamino)methyl)imidazo[1,2-a]pyridine-8-carbonitrile] |  |  |  |  | 
24.6 ± 2.73 | 13.8 ± 1.79 | 0.67 ± 0.05 | 0.21 ± 0.03 | 181.2 to 184.5 | 4.87 ± 0.38 |  | CCN(CC)Cc1cn2c(-c3c[nH]c4ccccc34)cc(-c3ccc(F)cc3Cl)c(C#N)c2n1 [7e, 7-(2-chloro-4-fluorophenyl)-2-((diethylamino)methyl)-5-(1H-indol-3-yl)imidazo[1,2-a]pyridine-8-carbonitrile] |  |  |  |  | 
28.7 ± 1.79 | 36.3 ± 5.15 | 1.27 ± 0.14 | 0.92 ± 0.14 | 201.3 to 203.5 | 16.9 ± 1.98 |  | N#Cc1c(-c2ccc(F)cc2Cl)cc(-c2c[nH]c3ccccc23)n2cc(CN3CCOCC3)nc12 [7h, 7-(2-chloro-4-fluorophenyl)-5-(1H-indol-3-yl)-2-(morpholinomethyl)imidazo[1,2-a]pyridine-8-carbonitrile] |  |  |  |  | 
